Data from patent publication US20090069302A1 (SMITHKLINE BEECHAM CORPORATION, priority 2006, published 2009).

Biological target: T1, AXOR109 (Homo sapiens, UniProt Q8TDU6)
T1 construct: expressed in transfected cells; host or cells: melanophore cells, transfected by electroporation
T1 sequence (Q8TDU6 1-330): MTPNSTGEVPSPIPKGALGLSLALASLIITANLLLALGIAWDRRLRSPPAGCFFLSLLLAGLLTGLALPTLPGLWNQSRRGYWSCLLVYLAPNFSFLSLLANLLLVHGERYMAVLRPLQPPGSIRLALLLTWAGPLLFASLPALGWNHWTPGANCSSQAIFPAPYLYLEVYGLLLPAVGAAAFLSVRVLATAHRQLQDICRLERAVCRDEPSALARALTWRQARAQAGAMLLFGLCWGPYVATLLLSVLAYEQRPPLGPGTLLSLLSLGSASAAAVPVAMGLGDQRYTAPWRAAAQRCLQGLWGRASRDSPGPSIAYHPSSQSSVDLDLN
Experiment: Human AXOR109/Melanophore Assay
Assay type: cell-based
Conditions: melanophore assay; for Emax: 1 h; for EC50: AXOR109 transfected melanophores
Protocol: AXOR109 is a Gs-coupled receptor and therefore increases intracellular cAMP leading to melanosome dispersion. Compounds of the present invention were characterized in a melanophore assay as described in Jayawickreme C K, et al., Current Protocols in Pharmacology (2005) 12.9.1-12.9.16. Briefly, melanophore cells are transfected by electroporation with AXOR109 expressing cDNA. Cells are then plated in 384 well clear bottom plates at 8E3 cells per well in 50 μl of conditioned fibroblast media (CFM). Compounds to be tested are serially diluted 3-fold in DMSO and further diluted 1:100 with melanophore assay buffer (MAB)+10 nM Melatonin to yield 11 point concentration response curves. Following 2 hour incubation with MAB+1% DMSO+10 nM Melatonin, initial transmittance is read on a TwisterII/Spectramax plate reader. Compounds are then added to the cells and incubated for 1 hour, and final transmittance is read as before. Results are compared to vehicle (MAB+1% DMSO+10 nM Melatonin) and to a positive control (MAB+1% DMSO+10 nM Melatonin+200 nM alpha-MSH). Data are calculated for each well as follows: 1-(Transmitance-final/Transmitance-initial). Each well result is then normalized to alpha-MSH, the system max control for Gs/Gq coupled receptors using the following equation: (ObjX−Control1)/(Control2−Control1)*100. The percent system max is used to generate the pEC50 using the equation: y=((Vmax*x̂n)/(K̂n+x̂n))+Y2. Acceptable Z-prime values should be >0.4. Compounds of the present invention have a pEC50≧5.0 in the above described assay.

[1] = normalized to alpha-MSH system max

CCN(C[C@H]1CCCN1S(=O)(=O)c1ccc(OC)c(OC)c1)S(=O)(=O)c1ccc(OC)c(OC)c1 [Example 98, N-[((2R)-1-{[3,4-bis(methyloxy)phenyl]sulfonyl}-2-pyrrolidinyl)methyl]-N-ethyl-3,4-bis(methyloxy)benzenesulfonamide]
Emax [1]: 76 to 100%
EC50: < 126 nM

COc1ccc(S(=O)(=O)N2C[C@H](C)N(S(=O)(=O)c3ccc(OC)c(OC)c3)C[C@@H]2C)cc1OC [Example 47, (2S,5S)-1,4-bis{[3,4-bis(methyloxy)phenyl]sulfonyl}-2,5-dimethylpiperazine]
EC50: < 126 nM

COc1ccc(S(=O)(=O)N2CCN(S(=O)(=O)c3ccc(OC)c(OC)c3)CC2)cc1F [Example 1, 1-{[3,4-bis(methyloxy)phenyl]sulfonyl}-4-{[3-fluoro-4-(methyloxy)phenyl]sulfonyl}piperazine]
EC50: 126 to 1000 nM

COc1ccc(S(=O)(=O)N2CCN(S(=O)(=O)c3ccc(OC)c(OC)c3)CC2)cc1 [Example 6, 1-{[3,4-bis(methyloxy)phenyl]sulfonyl}-4-{[4-(methyloxy)phenyl]sulfonyl}piperazine]
Emax [1]: 0 to 50%
EC50: 126 to 1000 nM

COc1ccc(S(=O)(=O)N2CCN(S(=O)(=O)c3ccc(OC)c(OC)c3)C(=O)C2)cc1OC [Example 76, 1,4-bis{[3,4-bis(methyloxy)phenyl]sulfonyl}-2-piperazinone]
Emax [1]: 51 to 75%
EC50: 1260 to 10000 nM

COc1ccc(S(=O)(=O)N2CCC(NS(=O)(=O)c3cccc4cccnc34)C2)cc1OC (stereo not drawn) [Example 16, N-(1-{[3,4-bis(methyloxy)phenyl]sulfonyl}-3-pyrrolidinyl)-8-quinolinesulfonamide]
EC50: 1260 to 10000 nM

COc1ccc(S(=O)(=O)N2C[C@H](C)N(S(=O)(=O)c3ccc(OC)c(OC)c3)C[C@@H]2C)cc1 [Example 72, (2S,5S)-1-{[3,4-bis(methyloxy)phenyl]sulfonyl}-2,5-dimethyl-4-{[4-(methyloxy)phenyl]sulfonyl}piperazine]
Emax [1]: > 100%
EC50: 126 to 1000 nM

COc1ccc(S(=O)(=O)N2CC(C)N(S(=O)(=O)c3ccc(OC)c(OC)c3)C(C)C2C)cc1OC (stereo not drawn) [Example 39, 1,4-bis{[3,4-bis(methyloxy)phenyl]sulfonyl}-2,3,5-trimethylpiperazine]
Emax [1]: 0 to 50%
EC50: 1260 to 10000 nM

COc1ccc(S(=O)(=O)N2C[C@@H](C)N(S(=O)(=O)c3ccc4oc(=O)ccc4c3)[C@@H](C)C2)cc1OC [Example 37, 6-[(4-{[3,4-bis(methyloxy)phenyl]sulfonyl}-2,6-cis-dimethyl-1-piperazinyl)sulfonyl]-2H-chromen-2-one]
Emax [1]: 0 to 50%
EC50: 1260 to 10000 nM

COc1ccc(S(=O)(=O)N2CCN(S(=O)(=O)c3ccc(OC)c(OC)c3)C(C)(C)C2)cc1OC [Example 50, 1,4-bis{[3,4-bis(methyloxy)phenyl]sulfonyl}-2,2-dimethylpiperazine]
Emax [1]: 76 to 100%
EC50: 126 to 1000 nM

COc1ccc(S(=O)(=O)N2C[C@H](C)N(S(=O)(=O)c3ccc(OC)c(OC)c3)C[C@H]2C)cc1OC [Example 22, trans-1,4-bis{[3,4-bis(methyloxy)phenyl]sulfonyl}-2,5-dimethylpiperazine]
Emax [1]: 51 to 75%
EC50: 1260 to 10000 nM

CCN(CCN(C1CC1)S(=O)(=O)c1ccc(OC)c(OC)c1)S(=O)(=O)c1ccc(OC)c(OC)c1 [Example 90]
Emax [1]: 51 to 75%
EC50: 126 to 1000 nM

COc1cccc(S(=O)(=O)N2[C@H](C)CN(S(=O)(=O)c3ccc(OC)c(OC)c3)C[C@@H]2C)c1 [Example 80]
Emax [1]: 51 to 75%
EC50: 1260 to 10000 nM

COc1ccc(S(=O)(=O)N2C[C@@H](C)N(S(=O)(=O)c3ccc(OC)c(OC)c3)[C@@H](C)C2)cc1OC [Example 54, (2R,6S)-1,4-bis{[3,4-bis(methyloxy)phenyl]sulfonyl}-2,6-dimethylpiperazine]
EC50: 126 to 1000 nM
% Max [1]: * (“*” = 0% to 50%)

COc1ccc(S(=O)(=O)N2CCN(S(=O)(=O)c3ccc(OC)c(OC(F)(F)F)c3)CC2)cc1OC [Example 91]
Emax [1]: 76 to 100%
EC50: 126 to 1000 nM

CCc1cc(S(=O)(=O)N2C[C@H](C)N(S(=O)(=O)c3ccc(OC)c(OC)c3)C[C@@H]2C)ccc1OC [Example 68, (2S,5S)-1-{[3,4-bis(methyloxy)phenyl]sulfonyl}-4-{[3-ethyl-4-(methyloxy)phenyl]sulfonyl}-2,5-dimethylpiperazine]
Emax [1]: 76 to 100%
EC50: 126 to 1000 nM

COc1ccc(S(=O)(=O)N2C[C@@H]3C[C@H]2CN3S(=O)(=O)c2ccc(OC)c(OC)c2)cc1OC [Example 86]
Emax [1]: 76 to 100%
EC50: 1260 to 10000 nM

COc1ccc(S(=O)(=O)NCCNS(=O)(=O)c2ccc(OC)c(OC)c2)cc1OC [Example 26, N,N′-1,2-ethanediylbis[3,4-bis(methyloxy)benzenesulfonamide]]
Emax [1]: 76 to 100%
EC50: 1260 to 10000 nM

COc1ccc(S(=O)(=O)N2CCN(S(=O)(=O)c3ccc(OC)c(OC)c3)c3ccccc32)cc1OC [Example 83]
Emax [1]: 51 to 75%
EC50: 126 to 1000 nM

CC[C@@H]1CN(S(=O)(=O)c2ccc(OC)c(OC)c2)[C@@H](CC)CN1S(=O)(=O)c1ccc(OC)c(OC)c1 [Example 45, (2R,5S)-1,4-bis{[3,4-bis(methyloxy)phenyl]sulfonyl}-2,5-diethylpiperazine]
Emax [1]: 76 to 100%
EC50: 1260 to 10000 nM

CCCN(C[C@@H]1CCCN1S(=O)(=O)c1ccc(OC)c(OC)c1)S(=O)(=O)c1ccc(OC)c(OC)c1 [Example 96, N-[((2S)-1-{[3,4-bis(methyloxy)phenyl]sulfonyl}-2-pyrrolidinyl)methyl]-3,4-bis(methyloxy)-N-propylbenzenesulfonamide]
Emax [1]: 76 to 100%
EC50: 126 to 1000 nM

COc1ccc(S(=O)(=O)N2[C@H](C)CN(S(=O)(=O)c3ccc(-c4cnco4)cc3)C[C@@H]2C)cc1OC [Example 34, 1-{[3,4-bis(methyloxy)phenyl]sulfonyl}-2,6-cis-dimethyl-4-{[4-(1,3-oxazol-5-yl)phenyl]sulfonyl}piperazine]
Emax [1]: 51 to 75%
EC50: 1260 to 10000 nM

CCc1cc(S(=O)(=O)N(C)CCN(C)S(=O)(=O)c2ccc(OC)c(OC)c2)ccc1OC [Example 43, N-{2-[{[3,4-bis(methyloxy)phenyl]sulfonyl}(methyl)amino]ethyl}-N-methyl-3-ethyl-4-(methyloxy)benzenesulfonamide]
Emax [1]: 0 to 50%
EC50: 126 to 1000 nM

COc1ccc(S(=O)(=O)N2CCN(S(=O)(=O)c3ccc(OC)c(OC)c3)CC(F)(F)C2)cc1OC [Example 53, 1,4-bis{[3,4-bis(methyloxy)phenyl]sulfonyl}-6,6-difluorohexahydro-1H-1,4-diazepine]
Emax [1]: 51 to 75%
EC50: 126 to 1000 nM

COc1ccc(S(=O)(=O)N2C[C@H](C)N(S(=O)(=O)c3ccc(OS(C)(=O)=O)c(OC)c3)C[C@@H]2C)cc1OC [Example 63, 4-[((2S,5S)-4-{[3,4-bis(methyloxy)phenyl]sulfonyl}-2,5-dimethyl-1-piperazinyl)sulfonyl]-2-(methyloxy)phenyl methanesulfonate]
EC50: 1260 to 10000 nM

COc1ccc(S(=O)(=O)N(C)CCN(C)S(=O)(=O)c2ccc(OC)c(OC)c2)cc1 [Example 15, N-methyl-N-[2-(methyl{[4-(methyloxy)phenyl]sulfonyl}amino)ethyl]-3,4-bis(methyloxy)benzenesulfonamide]
Emax [1]: 76 to 100%
EC50: 126 to 1000 nM
